In US20230077362A1 (CORTEVA AGRISCIENCE LLC, priority 2019, published 2023):
Where two headings read alike, the source gives them in different places.

Key:
[1] = test system: Beet Armyworm (Spodoptera exigua) ("BAW"), second instar larvae; experiment: Bioassay on beet armyworm (BAW), 128-well diet tray assay; type: in vivo; settings: for pest or weed control at 50 µg/cm2: Spodoptera exigua
Method in brief: (§1)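 Read-out: percent larval mortality per well, averaged over 8 wells. Incubation 25° C., 14:10 L:D photoperiod, 5–7 days, trays sealed with clear adhesive cover.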

[2] = test system: Cabbage Looper (Trichoplusia ni) ("CL"), second instar larvae; experiment: Bioassay on cabbage looper (CL), 128-well diet tray assay; type: in vivo
Method in brief: as §1

[3] = read-out: BAW (Biological Results, rating)
[4] = Trichoplusia ni, read-out: CL (Biological Results, rating)
[5] = Trichoplusia ni, read-out: CL rating

Work on `CC(C)c1ccc(N(C)C)cc1N1C(=O)CS/C1=N\C(=O)Nc1ccc(-c2ncn(-c3ccc(OC(F)(F)F)cn3)n2)cc1C#N` [Compound J266, (Z)-1-(2-Cyano-4-(1-(5-(trifluoromethoxy)pyridin-2-yl)-1H-1,2,4-triazol-3-yl)phenyl)-3-(3-(5-(dimethylamino)-2-isopropylphenyl)-4-oxothiazolidin-2-ylidene)urea] yielded a pest or weed control at 50 µg/cm2 [1, 3] of 50 to 100% and a pest or weed control at 50 µg/cm2 [2, 4] of 50 to 100%.

For `COc1ccc(COCC(F)(F)F)c(N2C(=O)CS/C2=N\C(=O)Nc2ccc(-c3ncn(-c4ccc(OC(F)(F)F)cc4)n3)cc2F)c1` [Compound J564], the BAW rating ([1]; Table ABC, species BAW, C = not tested, D = no activity noticed) was “A (50-100)” and the CL rating ([2]; Table ABC, species CL, C = not tested, D = no activity noticed) was “A (50-100)”.

Compound `Cc1ccc(OCCC(F)(F)F)c(N2C(=O)CS/C2=N\C(=O)Nc2ccc(-c3cn(-c4ccc(C(F)(F)F)cc4)cn3)cc2)c1` [Compound J517, (Z)-1-(3-(5-Methyl-2-(3,3,3-trifluoropropoxy)phenyl)-4-oxothiazolidin-2-ylidene)-3-(4-(1-(4-(trifluoromethyl)phenyl)-1H-imidazol-4-yl)phenyl)urea] has a pest or weed control at 50 µg/cm2 ([1]; read-out: BAW rating) of 50 to 100% and a pest or weed control at 50 µg/cm2 [2, 5] of 50 to 100%.

`COC(C)c1ccc(C)cc1N1C(=O)CS/C1=N\C(=O)Nc1ccc(-c2ncn(-c3ccc(OC(F)(F)F)cc3)n2)cc1C` (centres unmarked) [Compound J60, (Z)-1-(3-(2-(1-Methoxyethyl)-5-methylphenyl)-4-oxothiazolidin-2-ylidene)-3-(2-methyl-4-(1-(4-(trifluoromethoxy)phenyl)-1H-1,2,4-triazol-3-yl)phenyl)urea] was tested, and the pest or weed control at 50 µg/cm2 [1, 3] was 50 to 100% and the pest or weed control at 50 µg/cm2 [2, 4] was 50 to 100%.

Compound `CCOCc1ccc(C)cc1N1C(=O)CS/C1=N\C(=O)Nc1ccc(-c2ncn(-c3ccc(S(F)(F)(F)(F)F)cc3)n2)cc1C#N` [Compound J582] has a pest or weed control at 50 µg/cm2 ([1]; read-out: BAW rating) of 50 to 100% and a pest or weed control at 50 µg/cm2 [2, 5] of 50 to 100%.

In the case of `Cc1ccc(COCC(F)(F)F)c(N2C(=O)CS/C2=N\C(=O)Nc2ccc(-n3cnc(-c4ccc(OC(F)(F)F)cc4)c3)cc2Cl)c1` [Compound J786, (Z)-1-(2-Chloro-4-(4-(4-(trifluoromethoxy)phenyl)-1H-imidazol-1-yl)phenyl)-3-(3-(5-methyl-2-((2,2,2-trifluoroethoxy)methyl)phenyl)-4-oxothiazolidin-2-ylidene)urea], the “BAW rating (% control or mortality class)” value ([1]; Table ABC, species BAW, 128-well diet tray assay, second instar larvae) is reported as “A (50-100)” and the mortality at 50 µg/cm2 ([2]; Trichoplusia ni, Table ABC, species CL, 128-well diet tray assay, second instar larvae, read-out: CL rating (% control or mortality class)) is reported as 50 to 100%.

Compound `Cc1ccc(COCC(F)F)c(N2C(=O)CS/C2=N\C(=O)Nc2ccc(-n3cnc(-c4ccc(OC(F)(F)F)cc4)n3)cc2F)c1` [Compound J692, (Z)-1-(3-(2-((2,2-Difluoroethoxy)methyl)-5-methylphenyl)-4-oxothiazolidin-2-ylidene)-3-(2-fluoro-4-(3-(4-(trifluoromethoxy)phenyl)-1H-1,2,4-triazol-1-yl)phenyl)urea] has a pest or weed control at 50 µg/cm2 ([1]; read-out: BAW rating) of 50 to 100% and a pest or weed control at 50 µg/cm2 [2, 5] of 50 to 100%.

Work on `CCCc1ccc(C)cc1N1C(=O)CS/C1=N\C(=O)Nc1ccc(-c2ncn(-c3ccc(OC(F)(F)F)cn3)n2)cc1F` [Compound J272, (Z)-1-(2-Fluoro-4-(1-(5-(trifluoromethoxy)pyridin-2-yl)-1H-1,2,4-triazol-3-yl)phenyl)-3-(3-(5-methyl-2-propylphenyl)-4-oxothiazolidin-2-ylidene)urea] yielded a pest or weed control at 50 µg/cm2 [1, 3] of 50 to 100% and a pest or weed control at 50 µg/cm2 [2, 4] of 50 to 100%.

Compound `Cc1ccc(C(C)C)c(N2C(=O)CS/C2=N\C(=O)Nc2ccc(-c3ncn(-c4ccc(OC(F)(F)F)cc4)n3)cc2C(F)(F)F)c1` [Compound J114, (Z)-1-(3-(2-Isopropyl-5-methylphenyl)-4-oxothiazolidin-2-ylidene)-3-(4-(1-(4-(trifluoromethoxy)phenyl)-1H-1,2,4-triazol-3-yl)-2-(trifluoromethyl)phenyl)urea] has a pest or weed control at 50 µg/cm2 [1, 3] of 50 to 100% and a pest or weed control at 50 µg/cm2 [2, 4] of 50 to 100%.

`Cc1ccc(C(C)C)c(N2C(=O)CS/C2=N\C(=O)Nc2c(F)cc(-c3ncn(-c4ccc(OC(F)(F)F)cc4)n3)cc2F)c1` [Compound J78, (Z)-1-(2,6-Difluoro-4-(1-(4-(trifluoromethoxy)phenyl)-1H-1,2,4-triazol-3-yl)phenyl)-3-(3-(2-isopropyl-5-methylphenyl)-4-oxothiazolidin-2-ylidene)urea] gave a pest or weed control at 50 µg/cm2 [1, 3] of 50 to 100% and a pest or weed control at 50 µg/cm2 [2, 4] of 50 to 100%.

Work on `COC(c1ccc(C)cc1N1C(=O)CS/C1=N\C(=O)Nc1ccc(-c2nnc(-c3ccc(OC(F)(F)F)cc3)o2)cc1F)C(F)(F)F` (centres unmarked) [Compound J433, (Z)-1-(2-Fluoro-4-(5-(4-(trifluoromethoxy)phenyl)-1,3,4-oxadiazol-2-yl)phenyl)-3-(3-(5-methyl-2-(2,2,2-trifluoro-1-methoxyethyl)phenyl)-4-oxothiazolidin-2-ylidene)urea] yielded a pest or weed control at 50 µg/cm2 ([1]; read-out: BAW rating) of 50 to 100% and a pest or weed control at 50 µg/cm2 [2, 5] of 50 to 100%.

`COc1cc(COCC(F)(F)F)c(N2C(=O)CS/C2=N\C(=O)Nc2ccc(-c3ncn(-c4ccc(S(F)(F)(F)(F)F)cc4)n3)cc2C#N)cc1OC` [Compound J588, (Z)-1-(2-Cyano-4-(1-(4-(pentafluoro-λ^6-sulfaneyl)phenyl)-1H-1,2,4-triazol-3-yl)phenyl)-3-(3-(4,5-dimethoxy-2-((2,2,2-trifluoroethoxy)methyl)phenyl)-4-oxothiazolidin-2-ylidene)urea] gave a pest or weed control at 50 µg/cm2 ([1]; read-out: BAW rating) of 50 to 100% and a pest or weed control at 50 µg/cm2 [2, 5] of 50 to 100%.

`COc1ccc(C(C)C)c(N2C(=O)CS/C2=N\C(=O)Nc2ccc(-c3ncn(-c4ccc(C(F)F)cn4)n3)cc2F)c1` [Compound J355] gave a pest or weed control at 50 µg/cm2 [1, 3] of 50 to 100% and a pest or weed control at 50 µg/cm2 [2, 4] of 50 to 100%.

`CCOCc1ccc(C)cc1N1C(=O)CS/C1=N\C(=O)Nc1ccc(-c2ncn(-c3ccc(SC(F)(F)F)cc3)n2)cc1C` [Compound J205, (Z)-1-(3-(2-(Ethoxymethyl)-5-methylphenyl)-4-oxothiazolidin-2-ylidene)-3-(2-methyl-4-(1-(4-((trifluoromethyl)thio)phenyl)-1H-1,2,4-triazol-3-yl)phenyl)urea] showed a pest or weed control at 50 µg/cm2 [1, 3] of 50 to 100% and a pest or weed control at 50 µg/cm2 [2, 4] of 50 to 100%.

For `COC(C)c1ccc(C)cc1N1C(=O)CS/C1=N\C(=O)Nc1ccc(-c2ncn(-c3ccc(OCC#N)cc3)n2)cc1C` (centres unmarked) [Compound J358, (Z)-1-(4-(1-(4-(Cyanomethoxy)phenyl)-1H-1,2,4-triazol-3-yl)-2-methylphenyl)-3-(3-(2-(1-methoxyethyl)-5-methylphenyl)-4-oxothiazolidin-2-ylidene)urea], the pest or weed control at 50 µg/cm2 ([1]; read-out: BAW rating) was 50 to 100% and the pest or weed control at 50 µg/cm2 [2, 5] was 50 to 100%.

`COC(C)c1ccc(C)cc1N1C(=O)CS/C1=N\C(=O)Nc1ccc(-c2ncn(-c3ccc(OC(F)(F)F)cn3)n2)cc1C` (centres unmarked) [Compound J240, (Z)-1-(3-(2-(1-Methoxyethyl)-5-methylphenyl)-4-oxothiazolidin-2-ylidene)-3-(2-methyl-4-(1-(5-(trifluoromethoxy)pyridin-2-yl)-1H-1,2,4-triazol-3-yl)phenyl)urea] was tested, and the pest or weed control at 50 µg/cm2 [1, 3] was 50 to 100% and the pest or weed control at 50 µg/cm2 [2, 4] was 50 to 100%.

For `CN(C)c1ccc(OCC(F)(F)F)c(N2C(=O)CS/C2=N\C(=O)Nc2ccc(-c3ncn(-c4ccc(S(=O)(=O)C(F)(F)F)cc4)n3)cc2F)c1` [Compound J672, (Z)-1-(3-(5-(Dimethylamino)-2-(2,2,2-trifluoroethoxy)phenyl)-4-oxothiazolidin-2-ylidene)-3-(2-fluoro-4-(1-(4-((trifluoromethyl)sulfonyl)phenyl)-1H-1,2,4-triazol-3-yl)phenyl)urea], the pest or weed control at 50 µg/cm2 ([1]; read-out: BAW rating) was 50 to 100% and the pest or weed control at 50 µg/cm2 [2, 5] was 50 to 100%.

`CC(C)c1ccc(N(C)C)cc1N1C(=O)CS/C1=N\C(=O)Nc1ccc(-c2ncn(-c3ccc(S(F)(F)(F)(F)F)cc3)n2)cc1C(F)(F)F` [Compound J630, (Z)-1-(3-(5-(Dimethylamino)-2-isopropylphenyl)-4-oxothiazolidin-2-ylidene)-3-(4-(1-(4-(pentafluoro-λ^6-sulfaneyl)phenyl)-1H-1,2,4-triazol-3-yl)-2-(trifluoromethyl)phenyl)urea] showed a pest or weed control at 50 µg/cm2 ([1]; read-out: BAW rating) of 50 to 100% and a pest or weed control at 50 µg/cm2 [2, 5] of 50 to 100%.

`CC(C)c1ccc(N(C)C)cc1N1C(=O)CS/C1=N\C(=O)Nc1ccc(-c2ncn(-c3ccc([S+]([O-])C(F)(F)F)cc3)n2)cc1F` (centres unmarked) [Compound J379, (Z)-1-(3-(5-(Dimethylamino)-2-isopropylphenyl)-4-oxothiazolidin-2-ylidene)-3-(2-fluoro-4-(1-(4-((trifluoromethyl)sulfinyl)phenyl)-1H-1,2,4-triazol-3-yl)phenyl)urea] showed a pest or weed control at 50 µg/cm2 ([1]; read-out: BAW rating) of 50 to 100% and a pest or weed control at 50 µg/cm2 [2, 5] of 50 to 100%.

For `COC(C)c1ccc(C)cc1N1C(=O)CS/C1=N\C(=O)Nc1ccc(-n2cnc(-c3ccc(OC(F)(F)F)cc3)n2)cc1F` (centres unmarked) [Compound J685, (Z)-1-(2-Fluoro-4-(3-(4-(trifluoromethoxy)phenyl)-1H-1,2,4-triazol-1-yl)phenyl)-3-(3-(2-(1-methoxyethyl)-5-methylphenyl)-4-oxothiazolidin-2-ylidene)urea], the pest or weed control at 50 µg/cm2 ([1]; read-out: BAW rating) was 50 to 100% and the pest or weed control at 50 µg/cm2 [2, 5] was 50 to 100%.

With `CCc1cc(-c2ncn(-c3ccc(OC(F)(F)F)cc3)n2)ccc1NC(=O)/N=C1\SCC(=O)N1c1cc(N(C)C)ccc1OCCC(F)(F)F` [Compound J110, (Z)-1-(3-(5-(Dimethylamino)-2-(3,3,3-trifluoropropoxy)phenyl)-4-oxothiazolidin-2-ylidene)-3-(2-ethyl-4-(1-(4-(trifluoromethoxy)phenyl)-1H-1,2,4-triazol-3-yl)phenyl)urea] the pest or weed control at 50 µg/cm2 [1, 3] was 50 to 100% and the pest or weed control at 50 µg/cm2 [2, 4] was 50 to 100%.

`Cc1ccc(COCC(F)(F)F)c(N2C(=O)CS/C2=N\C(=O)Nc2ccc(-c3ncn(-c4ccc(OCC(F)(F)F)cc4)n3)cc2F)c1` [Compound J764, (Z)-1-(2-Fluoro-4-(1-(4-(2,2,2-trifluoroethoxy)phenyl)-1H-1,2,4-triazol-3-yl)phenyl)-3-(3-(5-methyl-2-((2,2,2-trifluoroethoxy)methyl)phenyl)-4-oxothiazolidin-2-ylidene)urea] was tested, and the pest or weed control at 50 µg/cm2 ([1]; read-out: BAW rating) was 50 to 100% and the pest or weed control at 50 µg/cm2 [2, 5] was 50 to 100%.
